Reference: patent US10377743B2, “Inhibitors of RAS and methods of use thereof” (Araxes Pharma LLC, priority 2016, dated 2019)

Target: T1, KRAS G12C 1-169, his-tagged protein, GDP-loaded (Homo sapiens, UniProt P01116, G12C)
T1 construct: KRAS G12C 1-169, his-tagged protein, GDP-loaded
Test: Biochemical assay: covalent binding (modification %) to KRAS G12C by mass spectrometry
Conditions: 2 hour incubation period

[1] = 8 μM compound (compounds 21-92)
[2] = 10 μM compound (compounds 1-20)

Row | Compound | Binding % [1] | Binding % [2]
1 | C=CC(=O)N1CC(N2Cc3c(cc(-c4cc(O)cc5ccccc45)cc3C(F)(F)F)C2=O)C1 [Compound 28, 2-(1-acryloylazetidin-3-yl)-6-(3-hydroxynaphthalen-1-yl)-4-(trifluoromethyl)isoindolin-1-one] | ++ (++ indicates binding activity from 10 to 50%) | 
2 | C=CC(=O)N1CC(N2Cc3cc(C)c(-c4cc(O)cc5ccccc45)cc3C2=O)C1 [Compound 30, 2-(1-acryloylazetidin-3-yl)-6-(3-hydroxynaphthalen-1-yl)-5-methylisoindolin-1-one] | +++ (+++ indicates binding activity greater than 50%) | 
3 | C=CC(=O)N1CCCC(N2Cc3ccc(-c4cc(O)cc5ccccc45)cc3C2=O)C1 (centres unmarked) [Compound 4, 2-(1-acryloylpiperidin-3-yl)-6-(3-hydroxynaphthalen-1-yl)isoindolin-1-one] |  | + (+ indicates binding activity up to 10%)
4 | C=CC(=O)N1CC(N2Cc3ccc(-c4ccccc4NC)cc3C2=O)C1 [Compound 60, 2-(1-acryloylazetidin-3-yl)-6-(2-(methylamino)phenyl)isoindolin-1-one] | + (+ indicates binding activity up to 10%) | 
5 | C=CC(=O)NCCN1Cc2ccc(-c3cc(O)cc4ccccc34)cc2C1=O [Compound 18, N-(2-(6-(3-hydroxynaphthalen-1-yl)-1-oxoisoindolin-2-yl)ethyl)acrylamide] |  | + (+ indicates binding activity up to 10%)
6 | C=CC(=O)N1CC(N2Cc3ccc(N4CCC(N(C)C)C4)cc3C2=O)C1 (centres unmarked) [Compound 62, 2-(1-acryloylazetidin-3-yl)-6-(3-(dimethylamino)pyrrolidin-1-yl)isoindolin-1-one] | + (+ indicates binding activity up to 10%) | 
7 | C=CC(=O)N1CC(N2Cc3ccc(-c4cccc(C#N)c4)cc3C2=O)C1 [Compound 55, 3-(2-(1-acryloylazetidin-3-yl)-3-oxoisoindolin-5-yl)benzonitrile] | + (+ indicates binding activity up to 10%) | 
8 | C=CC(=O)N1CC(N2Cc3ccc(-c4nc(N)ncc4C)cc3C2=O)C1 [Compound 88, 2-(1-acryloylazetidin-3-yl)-6-(2-amino-5-methylpyrimidin-4-yl)isoindolin-1-one] | + (+ indicates binding activity up to 10%) | 
9 | C=CC(=O)N1CC(N2Cc3c(F)cc(-c4cc(O)ccc4Cl)cc3C2=O)C1 [Compound 26, 2-(1-acryloylazetidin-3-yl)-6-(2-chloro-5-hydroxyphenyl)-4-fluoroisoindolin-1-one] | ++ (++ indicates binding activity from 10 to 50%) | 
10 | C=CC(=O)N1CC(N2Cc3ccc(-c4cccc(NC)c4)cc3C2=O)C1 [Compound 58, 2-(1-acryloylazetidin-3-yl)-6-(3-(methylamino)phenyl)isoindolin-1-one] | + (+ indicates binding activity up to 10%) | 
11 | C=CC(=O)N1CC(N2Cc3ccc(-c4cc(O)ccc4C)cc3C2=O)C1 [Compound 11, 2-(1-acryloylazetidin-3-yl)-6-(5-hydroxy-2-methylphenyl)isoindolin-1-one] |  | ++ (++ indicates binding activity from 10 to 50%)
12 | C=CC(=O)N1CC(N2Cc3ccc(NC4CCCN(C(C)=O)C4)cc3C2=O)C1 (centres unmarked) [Compound 71, 6-((1-acetylpiperidin-3-yl)amino)-2-(1-acryloylazetidin-3-yl)isoindolin-1-one] | + (+ indicates binding activity up to 10%) | 
13 | C=CC(=O)N1CC(N2Cc3ccc(N4CCCC(N(C)C)C4)cc3C2=O)C1 (centres unmarked) [Compound 78, 2-(1-acryloylazetidin-3-yl)-6-(3-(dimethylamino)piperidin-1-yl)isoindolin-1-one] | + (+ indicates binding activity up to 10%) | 
14 | C=CC(=O)N1CC(N2Cc3ccc(-c4cn[nH]c4)cc3C2=O)C1 [Compound 66, 2-(1-acryloylazetidin-3-yl)-6-(1H-pyrazol-4-yl)isoindolin-1-one] | + (+ indicates binding activity up to 10%) | 
